Paper PMC8942775, “Lipidated Calcitonin Gene-Related Peptide (CGRP) Peptide Antagonists Retain CGRP Receptor Activity and Attenuate CGRP Action In Vivo” (Frontiers in Pharmacology, 2022)
One block for each compound: values may come before it. Ends that are not written are not given here. Peptide text beside a SMILES is read from it. * marks the point of attachment. Ethyl(2-palmitoyloxy) = CCCCCCCCCCCCCCCC(=O)OCC*

Legend:
[1] = target: T1, human AMY1 receptor (CTR/RAMP1) (Homo sapiens, UniProt O60894+P30988); experiment: cAMP assay, antagonism of αCGRP at the human AMY1 receptor in transfected Cos-7 cells; format: cell-based; details: for pA2, AMY1r: non-lipidated analogues, single antagonist concentration 30 nM, agonist αCGRP, mean ± SEM of three independent experiments, SEM
T1 construct: HA; myc; expressed in transfected cells; host or cells: Cos-7
Method: (§1) Data were analyzed using GraphPad Prism versions 7–9 (GraphPad Software Inc., San Diego, CA, Unite States). Concentration-response cAMP data were fitted via non-linear regression using a four-parameter logistic equation. An extra sum-of-squares F-test was conducted to determine whether the Hill slope was equal to one. […] The maximal (Emax) and minimal (Emin) responses were not constrained between independent experiments to obtain the pEC50 value.
(§2) The Schild slope was also constrained to one.

[2] = target: T2, human CGRP receptor (CLR:RAMP1) (Homo sapiens, UniProt O60894+Q16602); experiment: cAMP assay, antagonism of αCGRP at the human CGRP receptor in transfected Cos-7 cells; format: cell-based; details: for pA2, CGRPr: non-lipidated analogues, single antagonist concentration 30 nM, agonist αCGRP, mean ± SEM of three independent experiments, SEM; for fold less potent compared to αCGRP8-37 at the CGRP receptor: from pA2 values at 30 nM
T2 construct: HA; myc; expressed in transfected cells; host or cells: Cos-7
Method: as §1, §2

[3] = Solubility limit of the dosing solution; format: physicochemical; details: dosing vehicle 0.9% saline with 0.1% BSA and 3.2% DMSO; limited the maximum dose to 320 nmol/kg (10 ml/kg)
Method: Experimental design is outlined in Figure 1. Male and female C57BL/6J mice were recruited at 10–12 weeks of age at 20–30 g bodyweight. Animals were randomly allocated to each treatment group. Antagonists were diluted from respective stock solutions into 37°C pre-warmed sterile 0.9% saline containing 0.1% BSA and DMSO at a final amount of 3.2%. The vehicle was 0.9% saline supplemented with 0.1% BSA and 3.2% DMSO. Antagonist or vehicle was administered subcutaneously at a volume of 10 ml/kg. The anesthetic was: ketamine at 10 mg/ml and xylazine at 1 mg/ml, dissolved in sterile 0.9% saline. This was administered via the intraperitoneal route at 10 ml/kg and the anesthetized mouse placed onto a heating pad to maintain constant body temperature. The head was positioned for the dorsal region of both ears to be aligned to the LDI2-HIR Laser Doppler Imager (Moor Instruments) above it. The imager scanned 40 cm from the ear at a scan speed of 4 ms/pixel, with a scan area of approximately 11.0 cm × 4.1 cm and 256 × 45 pixels resolution. This provided a scan rate of approximately 1 scan/min for both ears. Both ears were simultaneously scanned for 3 min to generate the baseline blood flow prior to capsaicin-challenge (Figure 1). […]

[4] = system: endogenous CGRP action (capsaicin-induced dermal vasodilation); experiment: Capsaicin-induced dermal vasodilation (CIDV), laser Doppler imaging of the mouse ear; format: in vivo, C57BL/6J mice; details: for effect on CIDV response (antagonist screening): male and female C57BL/6J mice, single s.c. dose 10 min before anesthesia, αCGRP8-37 960 nmol/kg, olcegepant 1150 nmol/kg, K24C-palmitate 320 nmol/kg, capsaicin 60 μg/ear, flux AUC over 15 min vs saline, four to five mice per group; for effect on CIDV response at lower (mass-matched) dose: s.c., flux AUC over 15 min vs matched vehicle group, compared to V8C-palmitate and K24C-palmitate, 4-7 per group
Method: Experimental design is outlined in Figure 1. Male and female C57BL/6J mice were recruited at 10–12 weeks of age at 20–30 g bodyweight. Animals were randomly allocated to each treatment group. Antagonists were diluted from respective stock solutions into 37°C pre-warmed sterile 0.9% saline containing 0.1% BSA and DMSO at a final amount of 3.2%. The vehicle was 0.9% saline supplemented with 0.1% BSA and 3.2% DMSO. Antagonist or vehicle was administered subcutaneously at a volume of 10 ml/kg. The anesthetic was: ketamine at 10 mg/ml and xylazine at 1 mg/ml, dissolved in sterile 0.9% saline. This was administered via the intraperitoneal route at 10 ml/kg and the anesthetized mouse placed onto a heating pad to maintain constant body temperature. The head was positioned for the dorsal region of both ears to be aligned to the LDI2-HIR Laser Doppler Imager (Moor Instruments) above it. The imager scanned 40 cm from the ear at a scan speed of 4 ms/pixel, with a scan area of approximately 11.0 cm × 4.1 cm and 256 × 45 pixels resolution. This provided a scan rate of approximately 1 scan/min for both ears. Both ears were simultaneously scanned for 3 min to generate the baseline blood flow prior to capsaicin-challenge (Figure 1). Guided by earlier research ([Grant et al., 2002]), capsaicin (Sigma-Aldrich, St. Louis, MO, United States) dissolved in absolute ethanol was applied topically to the ear (60 μg/ear; 10 μl on both dorsal and ventral side). On the contralateral ear, ethanol was applied as a negative control. Both ears were then immediately scanned with the Laser Doppler imager for a continuous 15-min period to capture changes in blood flow (Figure 1).
Mice were administered subcutaneously with vehicle or antagonist (Figure 1A). Ten minutes later mice were anesthetized and placed on a heating pad. Ten minutes after anesthesia induction, measurement of dermal blood-flow commenced. Either a single dose of antagonist as specified in the figures was used or a dose-ranging study was conducted. For the dose-ranging study, either hαCGRP8-37 or hαCGRP8-37 V8C-palmitate (V8C-palmitate) at a dose of 320, 960 or 3,200 nmol/kg was used. Doses were selected based on existing literature and our own pilot trials to characterize optimal (and maximal/minimal) effective dose within the bounds of solubility limits ([Saxen et al., 1994]; [Grant et al., 2002]; [Gohin et al., 2015]; [Aubdool et al., 2016]).
Mice were administered subcutaneously with vehicle or either hαCGRP8-37 (960 nmol/kg) or V8C-palmitate (960 nmol/kg) at 10, 20, 30 or 60 min prior to anesthesia and baseline read (Figure 1A). Ten minutes after anesthesia induction, measurement of dermal blood-flow began. To study the time of onset of antagonist activity, a shorter period between treatment administration and capsaicin challenge was utilized (T0) (Figure 1B). Here, mice were anesthetized and placed on the heating pad prior to peptide administration. Immediately after peptide administration, measurement of dermal blood-flow began.
For laser doppler imaging (LDI) scans, mean flux values of the whole scanned ear region for both ethanol (control) and capsaicin-treated ears at each time point (per minute) were analyzed using the MoorLDI Review 6.1 software. Mean flux values were normalized to the mean flux values averaged from the three continuous baseline scans and a time course is generated. Area under the curve (AUC) of the % flux mean after capsaicin application (t ≥ 0) was measured for each animal, grouped and compared between different ears or treatment arms. […] Time courses and time points were compared using repeated measures two-way ANOVA with Bonferonni’s multiple comparisons test.

T1 sequence (P30988 25-474): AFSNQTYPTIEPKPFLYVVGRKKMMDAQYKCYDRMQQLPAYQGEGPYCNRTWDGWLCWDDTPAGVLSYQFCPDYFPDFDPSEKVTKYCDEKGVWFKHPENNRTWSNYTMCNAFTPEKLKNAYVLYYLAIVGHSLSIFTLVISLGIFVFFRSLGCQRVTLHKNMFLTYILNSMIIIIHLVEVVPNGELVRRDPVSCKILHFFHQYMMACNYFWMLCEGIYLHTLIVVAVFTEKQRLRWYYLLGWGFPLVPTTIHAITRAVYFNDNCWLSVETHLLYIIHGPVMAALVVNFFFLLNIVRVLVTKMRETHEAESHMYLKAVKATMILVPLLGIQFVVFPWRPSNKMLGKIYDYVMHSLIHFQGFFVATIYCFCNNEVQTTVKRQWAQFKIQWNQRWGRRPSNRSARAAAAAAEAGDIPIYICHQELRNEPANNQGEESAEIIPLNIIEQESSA
T1 sequence (O60894 27-148): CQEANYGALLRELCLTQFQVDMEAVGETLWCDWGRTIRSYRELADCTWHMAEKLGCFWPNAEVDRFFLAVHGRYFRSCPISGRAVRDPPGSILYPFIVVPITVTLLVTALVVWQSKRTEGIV
T2 sequence (Q16602 23-461): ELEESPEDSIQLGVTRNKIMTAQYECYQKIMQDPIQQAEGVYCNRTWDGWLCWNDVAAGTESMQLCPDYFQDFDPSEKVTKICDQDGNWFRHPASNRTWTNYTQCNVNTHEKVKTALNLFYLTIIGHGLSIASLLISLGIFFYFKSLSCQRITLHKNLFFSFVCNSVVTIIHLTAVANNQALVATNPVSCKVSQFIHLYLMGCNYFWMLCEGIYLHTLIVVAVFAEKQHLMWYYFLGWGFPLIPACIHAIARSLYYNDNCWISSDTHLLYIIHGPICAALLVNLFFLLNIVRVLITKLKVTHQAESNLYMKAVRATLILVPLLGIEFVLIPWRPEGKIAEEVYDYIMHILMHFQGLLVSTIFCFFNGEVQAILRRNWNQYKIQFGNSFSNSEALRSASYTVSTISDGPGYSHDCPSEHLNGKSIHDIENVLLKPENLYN
T2 sequence (O60894 27-148): as the sequence (O60894 27-148) above

pA2, AMY1r [1]: 7.04 ± 0.18
pA2, CGRPr [2]: 8.85 ± 0.31
Compound: K35C αCGRP8-37: cysteine-substituted αCGRP8-37 analogue at Lys-35

fold reduction of antagonist activity compared to hαCGRP8-37 at AMY1 receptor ([1]; from pKB values): ~12 fold
fold reduction of antagonist activity compared to hαCGRP8-37 at CGRP receptor ([2]; from pKB values): ~70 fold
Compound: CCCCCCCCCCCCCCCC(=O)OCCSC[C@H](NC(=O)[C@H](CO)NC(=O)CNC(=O)[C@@H](NC(=O)[C@H](CC(N)=O)NC(=O)[C@@H](NC(=O)[C@@H]1CCCN1C(=O)[C@@H](NC(=O)[C@H](Cc1ccccc1)NC(=O)[C@H](CC(N)=O)NC(=O)[C@H](CC(N)=O)NC(=O)[C@H](CCCCN)NC(=O)[C@@H](NC(=O)[C@@H](NC(=O)CNC(=O)CNC(=O)[C@H](CO)NC(=O)[C@H](CCCNC(=N)N)NC(=O)[C@H](CO)NC(=O)[C@H](CC(C)C)NC(=O)[C@H](CC(C)C)NC(=O)CNC(=O)[C@H](C)NC(=O)[C@H](CC(C)C)NC(=O)[C@H](CCCNC(=N)N)NC(=O)[C@H](Cc1c[nH]cn1)NC(=O)[C@@H](NC(=O)[C@@H](N)C(C)C)[C@@H](C)O)C(C)C)C(C)C)C(C)C)[C@@H](C)O)C(C)C)C(=O)N[C@@H](C)C(=O)N[C@@H](Cc1ccccc1)C(N)=O [K35C-palmitate]

pA2, AMY1r [1]: 6.41 ± 0.15
fold less potent compared to αCGRP8-37 at the CGRP receptor [2]: 25 fold
pA2, CGRPr [2]: 7.23 ± 0.07
Compound: V8C αCGRP8-37: cysteine-substituted αCGRP8-37 analogue at Val-8 (CTHRLAGLLSRSGGVVKNNFVPTNVGSKAF-NH2; ends and bridges not checked; UniProt P06881 90-119, looked up, variant V8C)

Second part, the compound before the results:

Compound: αCGRP7-37: truncated peptide antagonist which retains the native Cys-7 residue (CVTHRLAGLLSRSGGVVKNNFVPTNVGSKAF; ends and bridges not checked; UniProt P06881 89-119, looked up, fragment)
pA2, AMY1r [1]: 7.10 ± 0.17
fold less potent compared to αCGRP8-37 at the CGRP receptor [2]: 4.5 fold
pA2, CGRPr [2]: 7.98 ± 0.09

Compound: CCCCCCCCCCCCCCCC(=O)OCCSC[C@H](NC(=O)[C@@H](NC(=O)[C@@H](NC(=O)CNC(=O)CNC(=O)[C@H](CO)NC(=O)[C@H](CCCNC(=N)N)NC(=O)[C@H](CO)NC(=O)[C@H](CC(C)C)NC(=O)[C@H](CC(C)C)NC(=O)CNC(=O)[C@H](C)NC(=O)[C@H](CC(C)C)NC(=O)[C@H](CCCNC(=N)N)NC(=O)[C@H](Cc1c[nH]cn1)NC(=O)[C@@H](NC(=O)[C@@H](N)C(C)C)[C@@H](C)O)C(C)C)C(C)C)C(=O)N[C@@H](CC(N)=O)C(=O)N[C@@H](CC(N)=O)C(=O)N[C@@H](Cc1ccccc1)C(=O)N[C@H](C(=O)N1CCC[C@H]1C(=O)N[C@H](C(=O)N[C@@H](CC(N)=O)C(=O)N[C@H](C(=O)NCC(=O)N[C@@H](CO)C(=O)N[C@@H](CCCCN)C(=O)N[C@@H](C)C(=O)N[C@@H](Cc1ccccc1)C(N)=O)C(C)C)[C@@H](C)O)C(C)C [K24C-palmitate] (H-VTHRLAGLLSRSGGVVC(Ethyl(2-palmitoyloxy))NNFVPTNVGSKAF-NH2; N-terminus assumed)
solubility [3]: limited solubility at high concentrations
effect on CIDV response (antagonist screening) [4]: attenuated the CIDV response

Compound: CCCCCCCCCCCCCCCC(=O)OCCSC[C@H](N)C(=O)N[C@H](C(=O)N[C@H](C(=O)N[C@@H](Cc1c[nH]cn1)C(=O)N[C@@H](CCCNC(=N)N)C(=O)N[C@@H](CC(C)C)C(=O)N[C@@H](C)C(=O)NCC(=O)N[C@@H](CC(C)C)C(=O)N[C@@H](CC(C)C)C(=O)N[C@@H](CO)C(=O)N[C@@H](CCCNC(=N)N)C(=O)N[C@@H](CO)C(=O)NCC(=O)NCC(=O)N[C@H](C(=O)N[C@H](C(=O)N[C@@H](CCCCN)C(=O)N[C@@H](CC(N)=O)C(=O)N[C@@H](CC(N)=O)C(=O)N[C@@H](Cc1ccccc1)C(=O)N[C@H](C(=O)N1CCC[C@H]1C(=O)N[C@H](C(=O)N[C@@H](CC(N)=O)C(=O)N[C@H](C(=O)NCC(=O)N[C@@H](CO)C(=O)N[C@@H](CCCCN)C(=O)N[C@@H](C)C(=O)N[C@@H](Cc1ccccc1)C(N)=O)C(C)C)[C@@H](C)O)C(C)C)C(C)C)C(C)C)[C@@H](C)O)C(C)C [αCGRP7-37-palmitate]
effect on CIDV response at lower (mass-matched) dose ([4]; male mice): weaker antagonist activities

Compound: NCCCC[C@H](NC(=O)[C@@H](Cc1cc(Br)c(O)c(Br)c1)NC(=O)N1CCC(N2Cc3ccccc3NC2=O)CC1)C(=O)N1CCN(c2ccncc2)CC1 [olcegepant, reference compound]
effect on CIDV response (antagonist screening) [4]: attenuated the CIDV response

Compound: CCCCCCCCCCCCCCCC(=O)OCCSC[C@H](N)C(=O)N[C@H](C(=O)N[C@@H](Cc1c[nH]cn1)C(=O)N[C@@H](CCCNC(=N)N)C(=O)N[C@@H](CC(C)C)C(=O)N[C@@H](C)C(=O)NCC(=O)N[C@@H](CC(C)C)C(=O)N[C@@H](CC(C)C)C(=O)N[C@@H](CO)C(=O)N[C@@H](CCCNC(=N)N)C(=O)N[C@@H](CO)C(=O)NCC(=O)NCC(=O)N[C@H](C(=O)N[C@H](C(=O)N[C@@H](CCCCN)C(=O)N[C@@H](CC(N)=O)C(=O)N[C@@H](CC(N)=O)C(=O)N[C@@H](Cc1ccccc1)C(=O)N[C@H](C(=O)N1CCC[C@H]1C(=O)N[C@H](C(=O)N[C@@H](CC(N)=O)C(=O)N[C@H](C(=O)NCC(=O)N[C@@H](CO)C(=O)N[C@@H](CCCCN)C(=O)N[C@@H](C)C(=O)N[C@@H](Cc1ccccc1)C(N)=O)C(C)C)[C@@H](C)O)C(C)C)C(C)C)C(C)C)[C@@H](C)O [V8C-palmitate]
effect on CIDV response (antagonist screening) [4]: attenuated the CIDV response
effect on CIDV, dose ranging, 320 nmol/kg ([4]; male mice, 320 nmol/kg s.c. 10 min before anesthesia, six mice per group): did not have a significant antagonist effect
effect on CIDV, dose ranging, 960 nmol/kg ([4]; male mice, 960 nmol/kg s.c. 10 min before anesthesia, six mice per group): significantly reduced CIDV
effect on CIDV, dose-duration study, T-10 ([4]; male mice, 960 nmol/kg s.c. 10 min prior to anesthesia and capsaicin application, six mice per group): attenuation evident only at T-10
effect on CIDV, dose-duration study, T-60 ([4]; male mice, 960 nmol/kg s.c. 60 min prior to anesthesia and capsaicin application, six mice per group): disappearing by the T-60 timepoint
effect on CIDV, dose ranging, 3,200 nmol/kg ([4]; male mice, 3,200 nmol/kg s.c. 10 min before anesthesia, six mice per group): significant antagonist effect

Compound: βCGRP8-37: human βCGRP fragment 8-37, synthesized in house
effect on CIDV response at lower (mass-matched) dose ([4]; male mice): weaker antagonist activities

Compound: K24C αCGRP8-37: cysteine-substituted αCGRP8-37 analogue at Lys-24 (VTHRLAGLLSRSGGVVCNNFVPTNVGSKAF-NH2; ends and bridges not checked; UniProt P06881 90-119, looked up, variant K24C)
pA2, AMY1r [1]: 7.06 ± 0.15
pA2, CGRPr [2]: 8.25 ± 0.11
